Source: US20060210479A1 (Dow Global Technologies Inc., priority 2004, published 2006)
Like-named read-outs stand apart in the source and are kept apart here.

Tests used:
HEK293 cells = test: Adsorption of chelate compounds to cells (HPLC and mass spectrometry); format: cell-based, human; conditions: for Adsorption HEK293: 50 µM chelate compound, 0, 30 and 90 minutes at 37 °C, % adsorbed relative to time zero
Description: (§1) As a prerequisite for the understanding of the functional attributes of Tb-PCTMB and Eu-QCTME for diagnostics and therapeutic purposes, and for other uses, it is useful to synthesize a series of chelate compounds that contain structural elements of both PCTMB and QCTME and test these compounds for adsorption and permeability to different cell lines. The first approach was to test for adsorption to a normal cell line (HEK293) and to two epithelial cancer cell lines (LNCaP and Caco-2). The second approach, described in this example, involves testing only the compounds that adsorbed in the cancer cell lines and not in the normal cell lines for permeability. Adsorption and permeability of the compounds to epithelial cancer cell lines and a normal cell line was measured through the detection of the compound by HPLC and mass spectrometry.
(§2) Cell cultures. LNCaP cell line is a human prostate carcinoma. Cells were grown in RPMI 1640 Medium supplemented 10% FBS, 2 mM L-glutamine, glucose (2 g/L) augmented with gentamicin (50 μg/mL), penicillin/streptomycin (100 IU/mL/100 μg/mL) and amphotericin B (2.5 μg/mL). Caco-2 cell line is a human colorectal carcinoma. These cells were grown in Eagle's Minimum Essential Medium supplemented with 20% FBS, Earle's BSS, 2 mM L-glutamine, 1.0 mM sodium pyruvate, 0.1 mM nonessential amino acids augmented with gentamicin (50 μg/mL), penicillin/streptomycin (100 IU/mL/100 μg/mL), and amphotericin B (2.5 μg/mL). The human kidney transformed cells HEK293 were grown in Eagle's Minimum Essential Medium (EMEM) supplemented with 10% (v/v) heat-inactivated fetal bovine serum, sodium pyruvate, nonessential amino acids and antibiotics in a humidified 5% CO2 atmosphere at 37° C. Medium and supplements were purchased from Gibco BRL (Grand Island, N.Y.) and all cell lines were obtained from ATCC.
(§3) Detection of chelate compounds for the determination of adsorption. Cells were grown to confluence in T-150 flasks (about 2×10^7 cells). Before treating with chelate compounds, cells were rinsed twice with warm 10 mM HEPES (Gibco BRL, Grand Island N.Y.), removed from the flask, and transferred to a 50-mL conical tube and centrifuged (400×g) for 5 minutes. The resulting cells were treated with individual chelate compounds with 50 µM of chelate compounds in 10 mM HEPES, pH 7.4, 5 mM KCl, 150 mM NaCl, 0.7 mM NaH2PO4 for 0, 30, and 90 minutes at 37 ° C. After treatment, cells were pelleted by centrifugation and the resulting solution was analyzed by a combination of HPLC and mass spectrometry.

Caco-2 cells = test: as above; format: cell-based, human; conditions: for Adsorption Caco-2: 50 µM chelate compound, 0, 30 and 90 minutes at 37 °C, % adsorbed relative to time zero
Description: as §1, §2, §3

LNCaP cells = test: as above; format: cell-based, human; conditions: for Adsorption LNCaP: 50 µM chelate compound, 0, 30 and 90 minutes at 37 °C, % adsorbed relative to time zero
Description: as §1, §2, §3

[1] = Solubility of chelate compounds

COP(=O)(O)Cc1ccc2cc(C)ccc2n1 [Compound 1]
adsorption in normal cells (HEK293) (HEK293 cells): did not adsorb
Adsorption HEK293 (HEK293 cells): 0 (0 = 0-10%)
adsorption in carcinoma cell line Caco-2 (Caco-2 cells): did not adsorb
Adsorption Caco-2 (Caco-2 cells): 0 (0 = 0-10%)
adsorption in carcinoma cell line LNCaP (LNCaP cells): did not adsorb
Adsorption LNCaP (LNCaP cells): 0 (0 = 0-10%)
solubility ([1]; <5% methanol, ethanol, or DMSO): > 10 mM

COP(=O)(O)Cc1cccc(CP(=O)(O)OC)n1 [Compound 4, [6-(Hydroxy-methoxy-phosphorylmethyl)-pyridin-2-ylmethyl]-phosphonic acid monomethyl ester]
adsorption in normal cells (HEK293) (HEK293 cells): adsorbed
Adsorption HEK293 (HEK293 cells): ++ (++ = 21-40%)
adsorption in carcinoma cell line Caco-2 (Caco-2 cells): adsorbed
Adsorption Caco-2 (Caco-2 cells): ++ (++ = 21-40%)
adsorption in carcinoma cell line LNCaP (LNCaP cells): adsorbed
Adsorption LNCaP (LNCaP cells): ++ (++ = 21-40%)
solubility ([1]; <5% methanol, ethanol, or DMSO): > 10 mM

CCOP(=O)(O)Cc1cccc(CP(=O)(O)OCC)n1 [Compound 5, [6-(Hydroxy-ethoxy-phosphorylmethyl)-pyridin-2-ylmethyl]-phosphonic acid monoethyl ester]
Adsorption HEK293 (HEK293 cells): + (+ = 11-20%)
Adsorption Caco-2 (Caco-2 cells): 0 (0 = 0-10%)
Adsorption LNCaP (LNCaP cells): + (+ = 11-20%)
solubility ([1]; <5% methanol, ethanol, or DMSO): > 10 mM

CCCCOP(=O)(O)Cc1cccc(CP(=O)(O)OCCCC)n1 [Compound 6, [6-(Hydroxy-butoxy-phosphorylmethyl)-pyridin-2-ylmethyl]-phosphonic acid monobutyl ester]
adsorption in normal cells (HEK293) (HEK293 cells): adsorbed
Adsorption HEK293 (HEK293 cells): +++ (+++ = 41-60%)
adsorption in carcinoma cell line Caco-2 (Caco-2 cells): adsorbed
Adsorption Caco-2 (Caco-2 cells): +++ (+++ = 41-60%)
adsorption in carcinoma cell line LNCaP (LNCaP cells): adsorbed
Adsorption LNCaP (LNCaP cells): +++ (+++ = 41-60%)
solubility ([1]; <5% methanol, ethanol, or DMSO): > 10 mM

COP(=O)(O)Cc1cc(CP(=O)(O)OC)cc(CP(=O)(O)OC)c1 [Compound 7, [3,5-Bis-(Methoxy-hydroxy-phosphorylmethyl)-benzyl]-phosphonic acid monomethyl ester]
adsorption in normal cells (HEK293) (HEK293 cells): did not adsorb
Adsorption HEK293 (HEK293 cells): 0 (0 = 0-10%)
adsorption in carcinoma cell line Caco-2 (Caco-2 cells): did not adsorb
Adsorption Caco-2 (Caco-2 cells): 0 (0 = 0-10%)
adsorption in carcinoma cell line LNCaP (LNCaP cells): did not adsorb
Adsorption LNCaP (LNCaP cells): 0 (0 = 0-10%)
solubility ([1]; <5% methanol, ethanol, or DMSO): > 10 mM

COP(=O)(O)Cc1c(C)c(CP(=O)(O)OC)c(C)c(CP(=O)(O)OC)c1C [Compound 10, [3,5-Bis-(Methoxy-hydroxy-phosphorylmethyl)-2,4,6-trimethyl-benzyl]-phosphonic acid monomethyl ester]
adsorption in normal cells (HEK293) (HEK293 cells): did not adsorb
Adsorption HEK293 (HEK293 cells): 0 (0 = 0-10%)
adsorption in carcinoma cell line Caco-2 (Caco-2 cells): did not adsorb
Adsorption Caco-2 (Caco-2 cells): 0 (0 = 0-10%)
adsorption in carcinoma cell line LNCaP (LNCaP cells): did not adsorb
Adsorption LNCaP (LNCaP cells): 0 (0 = 0-10%)
solubility ([1]; <5% methanol, ethanol, or DMSO): > 10 mM

CCCCN(CCCC)Cc1cc(CN(CCCC)CCCC)cc(CN(CCCC)CCCC)c1 [Compound 15, (3,5-Bis-dibutylaminomethyl-benzyl)-dibutyl-amine]
solubility [1]: < 10 mM

CCN(CC)Cc1c(C)c(CN(CC)CC)c(C)c(CN(CC)CC)c1C [Compound 17, (3,5-Bis-diethylaminomethyl-2,4,6-trimethyl-benzyl)-diethyl-amine]
solubility [1]: < 10 mM

CCCCN(CCCC)Cc1c(C)c(CN(CCCC)CCCC)c(C)c(CN(CCCC)CCCC)c1C [Compound 18, (3,5-Bis-dibutylaminomethyl-2,4,6-trimethyl-benzyl)-dibutyl-amine]
solubility [1]: < 10 mM
